Data on eleven compounds can be found in ChEMBL document CHEMBL1201862, “PubChem BioAssay data set” (2004).

Among the test systems are HCT-15; RXF 393; OVCAR-4; CCRF-CEM; EKVX; MOLT-4; SF-539; SF-295; LOX IMVI; SW-620; A498; HOP-62; OVCAR-8; NCI-H226; HL-60; NCI-H460.
Common to all, as to test: NCI tumour cell line growth inhibition, 48 h

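Method: 48-hour compound exposure of cells in 96-well plates, five concentrations, linear interpolation of endpoints. GI50: concentration for 50% inhibition of growth.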 The source made the active and inactive calls. No stated cut-off is given here; in the data, active = GI50 up to about 1.1 µM and inactive = higher. Non-standard residues stand in square brackets, D forms with d. Residues, ends and D or L forms follow the SMILES beside them. *: point of attachment. NMeF = CN[CH](Cc1ccccc1)C(=O)O; NMeV = CN[CH](C(=O)O)C(C)C; Boc = CC(C)(C)OC(=O)*

With `CC1C2C=C(O)C(=O)C(C2=O)C1c1ccccc1` (configuration not stated), the GI50 in the test with HCT-15 is above 100 µM; in the test on RXF 393, > 100 µM (inactive); in the test on OVCAR-4, > 100 µM (inactive); with CCRF-CEM it was > 100 µM (inactive); in the test on EKVX, > 100 µM (inactive); in the test on MOLT-4 it was > 100 µM (inactive). Also, the GI50 in the test with SF-539, with SF-295, in the test on LOX IMVI, in the test with SW-620, with A498 and with HOP-62 was > 100 µM (inactive) throughout. The GI50 with OVCAR-8 was > 100 µM (inactive); with NCI-H226, 45.1 µM (inactive).

As for `CC1=CC(=O)N2C(OC[C@@H]2c2ccccc2)O1` (some centres not stated), the GI50 is above 100 µM in the test on HCT-15; > 100 µM (inactive) in the test with RXF 393; > 100 µM (inactive) with OVCAR-4; > 100 µM (inactive) in the test with CCRF-CEM; > 100 µM (inactive) in the test on EKVX; > 100 µM (inactive) in the test on MOLT-4. Further, the GI50 with SF-539, with HL-60, with NCI-H460, in the test with SF-295, in the test with SW-620 and in the test on HOP-62 was > 100 µM (inactive) in each case. For the same compound, the GI50 with OVCAR-8 and in the test with NCI-H226 was > 100 µM (inactive) each time.

Regarding `CC(C)C1CC[C@@H](C)C[C@@]1(O)CC(N)=O` (some centres not stated), the GI50 with HCT-15 was above 100 µM; with OVCAR-4, > 100 µM (inactive); in the test with EKVX, > 100 µM (inactive); in the test with MOLT-4, > 100 µM (inactive); with SF-539 it was > 100 µM (inactive); in the test with NCI-H460, > 100 µM (inactive). Further, the GI50 in the test with SF-295, in the test on SW-620, in the test on OVCAR-8 and with NCI-H226 was > 100 µM (inactive) in each case.

For the compound `Cc1ccc(NC(=O)C(=O)CC(=O)c2ccccc2)cc1C`, the GI50 with HCT-15 is 37.2 µM; in the test on RXF 393, > 100 µM (inactive); with OVCAR-4, > 100 µM (inactive); in the test on EKVX, > 100 µM (inactive); with SF-539 it was > 100 µM (inactive); in the test with NCI-H460, > 100 µM (inactive). Besides, the GI50 in the test on SF-295, in the test with LOX IMVI, in the test with SW-620, with A498, with HOP-62 and with OVCAR-8 was > 100 µM (inactive) throughout. In the test with NCI-H226, the GI50 was > 100 µM (inactive).

For `CCC1C(C)c2c([nH]c3ccccc23)C2C(=O)N(c3ccccc3)C(=O)C21` (configuration not stated), the GI50 in the test with HCT-15 was 13.6 µM; with RXF 393 it was 12.7 µM (inactive); in the test with OVCAR-4, 13.4 µM (inactive); with CCRF-CEM it was 18 µM (inactive); with EKVX, 14 µM (inactive); in the test with MOLT-4, 9.31 µM (inactive). Moreover, the GI50 is 18.7 µM (inactive) in the test with SF-539; 11.1 µM (inactive) with HL-60; 14.3 µM (inactive) with NCI-H460; 15.1 µM (inactive) in the test on SF-295; 15.7 µM (inactive) in the test with LOX IMVI; 16.5 µM (inactive) in the test with SW-620. The GI50 in the test on OVCAR-8 is 14.5 µM (inactive).

Regarding `COc1cc(C(=O)C(CO)Oc2ccccc2OC)ccc1O` (configuration not stated), the GI50 with HCT-15 is above 100 µM; in the test on OVCAR-4 it was > 100 µM (inactive); in the test on CCRF-CEM, > 100 µM (inactive); with EKVX, > 100 µM (inactive); with MOLT-4, > 100 µM (inactive); in the test with SF-539, > 100 µM (inactive). Also, the GI50 in the test with HL-60, in the test with NCI-H460, in the test on SF-295, in the test on SW-620, with HOP-62 and with OVCAR-8 was > 100 µM (inactive) each time. The GI50 in the test with NCI-H226 was > 100 µM (inactive).

For `CC(C)(C)C(=C[S+]([O-])/N=C/c1ccccc1)C(C)(C)C` (configuration not stated), the GI50 in the test on HCT-15 is 23 µM; in the test with RXF 393 it was 26.7 µM (inactive); in the test on OVCAR-4, 21.4 µM (inactive); with CCRF-CEM, 17.8 µM (inactive); in the test on EKVX, 52.1 µM (inactive); with MOLT-4, 14 µM (inactive). Moreover, the GI50 was > 100 µM (inactive) with SF-539; 24.8 µM (inactive) with NCI-H460; 18.8 µM (inactive) in the test on LOX IMVI; 50 µM (inactive) in the test on SW-620; 36.4 µM (inactive) in the test with A498; 37.8 µM (inactive) in the test with HOP-62. Further, the GI50 in the test with OVCAR-8 is 59.4 µM (inactive); with NCI-H226, 20.7 µM (inactive).

With `COc1ccc(-c2cc(=O)c3cc(O)ccc3o2)c(OC)c1OC`, the GI50 is 31.8 µM in the test on HCT-15; 28.2 µM (inactive) with RXF 393; 27.2 µM (inactive) in the test on OVCAR-4; 4.73 µM (inactive) in the test on CCRF-CEM; 12.2 µM (inactive) with EKVX; 68.5 µM (inactive) with SF-539. In addition, the GI50 with HL-60 is 15.7 µM (inactive); in the test on SF-295, 24.7 µM (inactive); in the test on LOX IMVI, 21.7 µM (inactive); in the test on SW-620, 40.8 µM (inactive); in the test on HOP-62, 42.7 µM (inactive); with NCI-H226, 41.6 µM (inactive).

`Oc1ncnc2c1CCCN2`: the GI50 in the test with HCT-15 is above 100 µM; with RXF 393, > 100 µM (inactive); in the test on CCRF-CEM, > 100 µM (inactive); with EKVX, > 100 µM (inactive); in the test with MOLT-4, > 100 µM (inactive); with HL-60 it was > 100 µM (inactive). The GI50 in the test with SF-295, in the test with LOX IMVI, in the test with SW-620, in the test with HOP-62 and in the test with OVCAR-8 was > 100 µM (inactive) each time.

`CC(C)C(NC(=O)OC(C)(C)C)C(=O)N(C)C(Cc1ccccc1)C(=O)N(C)C(C(=O)O)C(C)C` (stereo not drawn) (Boc-Val-[NMeF]-[NMeV]-OH; configuration not given here): the GI50 is above 100 µM with HCT-15; > 100 µM (inactive) in the test on CCRF-CEM; > 100 µM (inactive) in the test with EKVX; > 100 µM (inactive) in the test with MOLT-4; > 100 µM (inactive) with SF-539; > 100 µM (inactive) in the test on HL-60. Besides, the GI50 with NCI-H460, in the test on SF-295, with LOX IMVI, in the test with SW-620, in the test with HOP-62 and with OVCAR-8 was > 100 µM (inactive) each time. In addition, the GI50 with NCI-H226 was > 100 µM (inactive).

Regarding `CN1CCCCC(C(O)(c2ccccc2)c2ccccc2)C1=O` (configuration not stated), the GI50 with HCT-15 was 16.3 µM; in the test on RXF 393, 69 µM (inactive); with OVCAR-4, > 100 µM (inactive); in the test with CCRF-CEM it was 85.5 µM (inactive); in the test on EKVX, > 100 µM (inactive); with MOLT-4, > 100 µM (inactive). Besides, the GI50 in the test with SF-539 was > 100 µM (inactive); with NCI-H460, 80 µM (inactive); with SF-295 it was > 100 µM (inactive); in the test on LOX IMVI, > 100 µM (inactive); with SW-620, 11.9 µM (inactive); with A498, > 100 µM (inactive). Besides, the GI50 in the test on HOP-62, in the test with OVCAR-8 and in the test on NCI-H226 was > 100 µM (inactive) throughout.
